{"source": "patent US20140220081A1", "about": "“USE OF A GALACTOSE-DERIVED C-GLYCOSIDE COMPOUND AS AN AGENT FOR ACTIVATING AND REGULATING CUTANEOUS IMMUNITY” (L'OREAL, priority 2006, published 2014)", "system": "human peripheral blood cells", "test": "Immunostimulant activity: human lymphocyte proliferation revealed by BrdU labelling", "type": "cell-based", "conditions": "for % stimulation relative to the control: 3 days of culture, BrdU labelling", "method": "The immunostimulant activity is tested in the following way: human peripheral blood cells are cultured in the presence of an RPMI-type culture medium supplemented with L-glutamine (2 mM), penicillin/streptomycin (50 μg/50 IU/ml) and foetal calf serum (10%). The C-glycoside derivatives are added at various concentrations (10 to 0.05 mM), as is phyto-haemagglutinin (PHA at 5 […]), a positive control for lymphocyte proliferation.", "data": [{"smiles": "CC(=O)C[C@@H]1O[C@H](CO)[C@H](O)[C@H](O)[C@H]1O", "note": "[Compound 1, 1-(C-β-galactopyranosyl)propan-2-one]", "values": [{"measurement": "% stimulation relative to the control", "setting": "0.05 mM", "value": 91, "unit": "%"}, {"measurement": "% stimulation relative to the control", "setting": "0.1 mM", "value": 89, "unit": "%"}, {"measurement": "% stimulation relative to the control", "setting": "0.5 mM", "value": 130, "unit": "%"}, {"measurement": "% stimulation relative to the control", "setting": "1 mM", "value": 138, "unit": "%"}, {"measurement": "% stimulation relative to the control", "setting": "5 mM", "value": 261, "unit": "%"}, {"measurement": "% stimulation relative to the control", "setting": "10 mM", "value": 271, "unit": "%"}, {"measurement": "human lymphocyte proliferation (result in words)", "setting": "all the concentrations tested (10 to 0.05 mM)", "value": "tendency to stimulate human lymphocyte proliferation at all the concentrations tested"}]}]}
